Structures are written as SMILES. Active and inactive are the calls of the source. No cut-off for these calls is given here.

The record followed here is ChEMBL document CHEMBL3045580, “New aspect of gallic esters: marked effect on termite feeding” (J Pestic Sci, 2011).

What all share (type): functional, organism-based
Test [1] relates to Coptotermes formosanus. Description: Antifeeding activity against Coptotermes formosanus undifferentiated larvae assessed as induction of feeding deterrence using 0.5% w/w compound treated filter paper disks measured after 1 week by no-choice feeding test.
The subject of test [2] is Coptotermes formosanus. Description: Antifeeding activity against Coptotermes formosanus undifferentiated larvae assessed as induction of feeding deterrence compound treated filter paper disks measured after 1 week by no-choice feeding test.
For test [3], the system named is Coptotermes formosanus. Description: Feeding stimulant effect in Coptotermes formosanus undifferentiated larvae using 0.5% w/w compound treated filter paper disks measured after 1 week by no-choice feeding test.

On to `CCCOC(=O)c1cc(O)c(O)c(O)c1`, for which the result in the test with Coptotermes formosanus [1] was Active.

With `CCCCCCCCCCCCOC(=O)c1cc(O)c(O)c(O)c1`, the outcome in the test with Coptotermes formosanus [1] was Active. As for `CCCCCCCCCCOC(=O)c1cc(O)c(O)c(O)c1` [DECYL GALLATE], the IC50 in the test on Coptotermes formosanus [2] was 0.05%. The outcome in the test with Coptotermes formosanus [1] was Active. `CCCCCCCCOC(=O)c1cc(O)c(O)c(O)c1`: the outcome in the test on Coptotermes formosanus [1] was Active.

`CCCCCCCCCCCCCCOC(=O)c1cc(O)c(O)c(O)c1`: in the test on Coptotermes formosanus [1], the outcome was Active.

In the case of `CCCCCCOC(=O)c1cc(O)c(O)c(O)c1`, in the test with Coptotermes formosanus [1], the outcome was Active. Consider `CCCCCCCCCCCCCCCCCCOC(=O)c1cc(O)c(O)c(O)c1`, for which, in the test with Coptotermes formosanus [3], the outcome was Active.
